# Test results: patent US11925702B2, “Methods for extracting compound from ginseng, ginseng extract comprising the compound and composition for enhancing skin barrier comprising the same” (AMOREPACIFIC CORPORATION, priority 2022, dated 2024)
# What was measured:
# Type in all cases: cell-based, human
# [1] = system: Occludin (OCLN) gene; test: Occludin (OCLN) gene expression in NHEK by Taqman real-time PCR; settings: isolated compound added to NHEK culture media, concentration series (FIG. 6)
# Description: (§1) (1) Normal human epidermal keratinocytes (NHEK) were cultured in 6-well culture media. The anaerobic-naturally fermented ginseng extract of the preparation example and an unfermented fresh ginseng extract were respectively added to the NHEK media and cultured. After harvesting the cells on the 4th day, separating RNA therefrom, and synthesizing cDNA through RT-PCR (reverse transcriptional polymerase chain reaction), the synthesized cDNA was measured with respect to an expression level of the Filaggrin gene through Taqman real-time PCR, and the results are shown in FIG. 4.
# (§2) (2) The compound represented by Chemical Formula 1-1, which was separated from the anaerobic-naturally fermented ginseng extract of the preparation example, was added to an NHEK culture media and treated in the same manner as in (1), and then measured with respect to each gene expression level of Filaggrin, Occludin, and ATP-binding cassette sub-family A member 12 (ATP-binding cassette transporter 12), and the results are shown in FIGS. 5 to 7.
# [2] = system: ATP-binding cassette sub-family A member 12 (ABCA12) gene; test: ABCA12 gene expression in NHEK by Taqman real-time PCR; settings: isolated compound added to NHEK culture media, concentration series (FIG. 7)
# Description: as §1, §2
# [3] = system: Filaggrin (FLG) gene; test: Filaggrin (FLG) gene expression in NHEK by Taqman real-time PCR; settings: isolated compound added to NHEK culture media, concentration series (FIG. 5)
# Description: as §1, §2
structure (smiles),measurement,setting,value
CC(C)=CCC[C@](C)(O[C@@H]1O[C@H](CO[C@@H]2O[C@H](CO)[C@@H](O)[C@H](O)[C@H]2O)[C@@H](O)[C@H](O)[C@H]1O)[C@H]1CC[C@]2(C)[C@@H]1[C@H](O)C[C@@H]1[C@@]3(C)CC[C@H](O[C@@H]4O[C@H](CO)[C@@H](O)[C@H](O)[C@H]4O)C(C)(C)[C@@H]3CC[C@]12C [Chemical Formula 1-1],gene expression level of Occludin (OCLN),[1],"increased, as a concentration thereof was increased"
same,gene expression level of ATP-binding cassette sub-family A member 12 (ABCA12),[2],"increased, as a concentration thereof was increased"
same,gene expression level of Filaggrin (FLG),[3],"increased, as a concentration thereof was increased"
